Test [1] addresses Geranylgeranyl transferase type-1 subunit beta [A2V]/Protein farnesyltransferase/geranylgeranyltransferase type-1 subunit alpha (Homo sapiens, UniProt P49354+P53609, A2V). The test is described as follows: In Vitro FTase/GGTase-1 Inhibition Assay. The note with it: pH 7.7; 30 °C. The protocol: (§1) Compounds were tested as inhibitors of FTase or GGTase-1 in vitro using purified recombinant mammalian enzymes to catalyze the reactions between [3H] FPP or [3H]GGPP, and recombinant protein substrates. Incorporation of radiolabeled isoprenoid into Ras protein substrate was quantitated by precipitation of total protein with acid and scintillation counting. The inhibitory activity of the compounds is reported as an IC50 value, the concentration of inhibitor required to reduce radiolabel incorporation by 50% compared with an uninhibited control experiment.

The target of test [2] is Protein farnesyltransferase subunit beta/geranylgeranyltransferase type-1 subunit alpha (Homo sapiens, UniProt P49354+P49356). The test is described as follows: In Vitro FTase/GGTase-1 Inhibition Assay. As to conditions: pH 7.7; 30 °C. The protocol:
as §1

Molecules are shown by their SMILES. Bounds are passed on as bounds.

Geranylgeranyl transferase type-1 subunit beta [A2V]/Protein farnesyltransferase/geranylgeranyltransferase type-1 subunit alpha, sequence (P53609 whole entry A2V, other chains not shown): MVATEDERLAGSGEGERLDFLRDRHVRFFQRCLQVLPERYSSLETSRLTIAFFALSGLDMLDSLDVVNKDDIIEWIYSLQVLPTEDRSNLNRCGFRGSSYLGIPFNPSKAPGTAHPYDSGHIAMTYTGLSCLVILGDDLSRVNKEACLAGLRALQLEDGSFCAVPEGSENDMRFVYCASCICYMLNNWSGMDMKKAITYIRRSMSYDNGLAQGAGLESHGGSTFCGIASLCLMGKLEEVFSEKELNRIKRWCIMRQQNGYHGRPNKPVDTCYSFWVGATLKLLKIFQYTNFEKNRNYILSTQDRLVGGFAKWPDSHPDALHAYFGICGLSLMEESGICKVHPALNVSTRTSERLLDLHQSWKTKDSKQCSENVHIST

As to `CSCCc1c(-c2cccnc2)nn(-c2ccc(Cl)c(Cl)c2)c1OCCCC(=O)N[C@@H](Cc1ccccc1)C(N)=O` [N-[(S)-1-carbamoyl-2-phenylethyl]-4-[2-(3,4-di-chlorophenyl)-4-(2-methylsulfanylethyl)-5-pyridin-3-yl-2-H-pyrazol-3-yloxy]butyramide], the half-inhibitory concentration (IC50) in test [1] was 8.24 nM; in test [2], above 2000 nM.

The term IC50 denotes the concentration that inhibits the measured activity by half. Higher therefore signals lower potency.

For the origin of these results see BindingDB's records for doi:10.1074/jbc.M600168200 (Duke University Medical Center, 2006).
